Experimental data taken from patent US8822432B2, “Equol production accelerating composition” (Unitika Ltd., priority 2006, dated 2014).

System: equol production in the intestines
Test: Equol production accelerating effect in rats: equol concentration in blood plasma after 5 weeks of sample-mixed feed
Assay type: in vivo, SD rats
Conditions: week 5
Text: Calcium lactobionate (manufactured by Sigma Aldrich) was mixed with a rat powder feed (CRF-1, manufactured by Oriental Yeast Co., Ltd.) to a concentration of 0, 0.5 or 3.0% by weight. Also, as comparative controls, a 1.5% by weight difructose-dianhydride III (DFA-III) (manufactured by Wako Pure Chemical Industries, Ltd)-mixed powder feed and a 1.5% by weight fructo-oligosaccharide (FOS) (manufactured by Wako Pure Chemical Industries, Ltd)-mixed powder feed were used.
Acclimatization rearing of 3 animals per group of 5-week-old SD rats (manufactured by Clea Japan, Inc.) was carried out for 1 week by allowing to freely ingest the powder feed CRF-1 and water. The time of completion of the acclimatization rearing was regarded as the […] Starting from the week 0, respective groups were allowed to freely ingest the calcium lactobionate-mixed powder feed prepared in the above. The control groups were allowed to ingest a general powder feed.
The conjugated soybean isoflavone presenting in the rat blood plasma was converted into its free state using β-glucuronidase, and then equol was measured using an LC/MS/MS system. As the instruments for analysis, HP1100 Series, Agilent Technologies, was used in the LC, and Quattro-Ultima, Micromass was used in the MS/MS. […]

## O=C([O-])[C@H](O)[C@@H](O)[C@H](O[C@@H]1O[C@H](CO)[C@H](O)[C@H](O)[C@H]1O)[C@H](O)CO.O=C([O-])[C@H](O)[C@@H](O)[C@H](O[C@@H]1O[C@H](CO)[C@H](O)[C@H](O)[C@H]1O)[C@H](O)CO.[Ca+2] [calcium lactobionate, Calcium lactobionate]
Calcium lactobionate-mixed powder feed (0.5 or 3.0% by weight), free ingestion
  equol concentration in blood plasma, times of the control group: 2 to 3 times of the control group
Mixed powder feed
  equol concentration in blood plasma compared to the DFA-III and fructo-oligosaccharide: high
